Earlier results, collected in PMC4646457 (PLoS ONE, 2015).

Conditions: refractory advanced or metastatic breast cancer; ref ZM2006/00137/00 (EGF100151); cited from earlier work

SMILES: CCCCCOC(=O)Nc1nc(=O)n([C@@H]2O[C@H](C)[C@@H](O)[C@H]2O)cc1F [capecitabine]
- median time to progression: 18.6 weeks
